Marks after values point to notes of the source that are not given here.
Experiments:
[1] = test system: whrithing by phenylquinone; assay: Analgesic activity, writhing by phenylquinone (method of Siegmund); format: in vivo; settings: mice
carrageenin edema = assay: Antiinflammatory activity, carrageenin edema test (method of Winter); format: in vivo; settings: rat; for % INHIBITION / EDEMA VOLUME Final value: 50 mg/kg oral 30 minutes before carrageenin, measured 3 hours after induction; for EDEMA VOLUME Basal value: 50 mg/kg oral
Procedure: The antiinflammatory activity of MR 549 has been assessed by the carrageenin edema test in the rat according to the method of Winter et al. (Proc. Soc. Exp. Biol. Med., 1962, III, 544).
The product under exam and indomethaoin at equiponderant doses have been administered by the oral route 30 minutes before of the subplantar carragee ning injection; pletismographic measures of the edemas have been performed 3 hours after they had been induced.

[2] = Acute toxicity after single administration, mouse; format: in vivo; settings: in vivo, mouse, single administration
From the text: (§1) The toxicity after single administrations of MR 549 has been studied in mice and rats by the oral and intraperitoneal routes.
(§2) The LD50 values have been calculated according to the method of Litchfield and Wilooxon (J. Pharm. Exp. Therap., 1949, 96, 99).

mouse = assay: Acute toxicity after single administration, mouse; format: in vivo; settings: mice and rats, oral and intraperitoneal routes
From the text: as §1, §2

[3] = Acute toxicity after single administration, rat; settings: in vivo
From the text: as §1, §2

motor activity = assay: Spontaneous motor activity; format: in vivo; settings: Swiss mouse, 50 mg/kg i.p.
Procedure: The effect of MR 549 on the motor activity has been studied in the Swiss mouse, by placing two groups of animals in a box connected with a recorder detec ting spontaneous motility. On the basis of movemen- ts/minute recorded, MR 549 at the dose of 50 mg/kg i.p. has been administered to one group and the ac tivity has been recorded during the 2 hours following treatment; the second group, treated with the solvent alone, has been used as control group.

gastric mucosa [4] = settings: rat, in vivo, po
Procedure: (§3) Male rats of S-D strain, weighing 180-200 g and fasting for 48 hours with free access to water, have been used. The product under exam have been administered by intraperitoneal routes : twice (after 24 and 31 hours from the beginning of the fasting period) at the single dose of 100 mg/kg; or three times by oral route (9.24 and 31 hours after the beginning of the fasting period) at the single dose of 150 mg/kg.

gastric mucosa [5] = assay: Gastric tolerability (method of Pisanti and Volterra); settings: fasting rats, 12 animals
Procedure: as §3

[6] = 50 mg/kg os, 30 minutes before phenylquinone injection

CC(=O)Oc1ccccc1C(=O)O [ACETYL-SALICYLIC ACID, acetylsalicylic acid, reference compound]
% INHIBITION IN COMPARISON WITH CONTROLS ([1]; 100 mg/kg os): 79.6%
N° CONTORSIONS X̄ ± e.s. ([1]; 100 mg/kg os): 3.9 ± 1.93
N° WHRITHING ANIMALS/TOTAL N& ([1]; 100 mg/kg os): 12/20

COc1ccc2c(c1)c(CC(=O)O)c(C)n2C(=O)c1ccc(Cl)cc1 [INDO-METHACINE, indomethacin, reference compound]
% INHIBITION (carrageenin edema): 53.2%
EDEMA VOLUME Final value (carrageenin edema): 29.6
EDEMA VOLUME Basal value (carrageenin edema): 22.5

Cc1cccnc1NC(=O)C1(c2ccccc2)CCCC1 [MR 549, 2-[(1-phenyl)cyclopentyl-carbonyl]-amino-3-methylpyridine]
LD50 ([2]; ip): 300 mg/kg
LD50 ([2]; po, os): 550 mg/kg
acute toxicity (verbal summary) (mouse): very low acute toxicity
LD50 ([3]; ip): 600 mg/kg
LD50 ([3]; po, os): 1100 mg/kg
% INHIBITION IN COMPARISON WITH CONTROLS [1, 6]: 63.9%
N° CONTORSIONS X̄ ± e.s. [1, 6]: 6.9 ± 2.24
N° WHRITHING ANIMALS/TOTAL N& [1, 6]: 14/20
% INHIBITION (carrageenin edema): 38.1%
EDEMA VOLUME Final value (carrageenin edema): 31.8
EDEMA VOLUME Basal value (carrageenin edema): 22.6
N° recorded movements/min. (motor activity; 15'): 42 movements/min.
N° recorded movements/min. (motor activity; 30'): 52 movements/min.
N° recorded movements/min. (motor activity; 60'): 39 movements/min.
N° recorded movements/min. (motor activity; 90'): 52 movements/min.
N° recorded movements/min. (motor activity; Time: 0): 45 movements/min.
gastrolesive action (verbal summary) (gastric mucosa [4]): clearly lower than phenylbutazone

CCCCC1C(=O)N(c2ccccc2)N(c2ccccc2)C1=O [Phenylbu-tazone, phenylbutazone]
% ANIMALS WITH ULCERS (gastric mucosa [5]; 100 mg X 2 i.p.): 83.30%
N° ANIMALS WITH ULCERS (gastric mucosa [5]; 100 mg X 2 i.p.): 10*
animals died during treatment (gastric mucosa [5]; 100 mg X 2 i.p.): * an animal died during treatment
% ANIMALS WITH ULCERS (gastric mucosa [5]; 150 mg X 3 os): 91.67%
N° ANIMALS WITH ULCERS (gastric mucosa [5]; 150 mg X 3 os): 11**
animals died during treatment (gastric mucosa [5]; 150 mg X 3 os): ** two animals died during treatment.

— patent publication EP0081756A1, “New compounds with antiinflammatory and antitussive activity, process for their preparation and relative pharmaceutical compositions” (MEDEA RESEARCH S.r.l., priority 1981, dated 1983)
